For assay [1], the system named is human sensory panel. In words: Human sensory panel, sweet taste versus reference water solution containing 4% sucrose. Particulars: 20 trained panelists, scale −5 (strong masking) to 5 (strong enhancing), 0 = reference water solution containing 4% sucrose. It is filed as in vivo. From the text: (§1) Certain HMF compounds were tasted by a human sensory panel to assess their ability to reduce bitterness, reduce astringency, and enhance sweetness. The panel consisted of 20 trained panelists evaluating the samples at 1 ppm, 5 ppm, or 10 ppm for taste properties (sweet, bitter, or astringent) on a scale of −5 to 5 (−5 denoted strong masking effect and 5 denoted strong enhancing effect, 0 being the intensity of a reference water solution containing 4% sucrose or 10 ppm mixture of Limonin, Naringin and Nomilin) The results are set forth in Table 2. The composition numberings (“Cpn”) are set forth above in Example 1.

Assay [2] deals with human sensory panel. Kind of assay: Human sensory panel, bitter and astringent taste versus reference water solution with 10 ppm mixture of Limonin, Naringin and Nomilin. It is filed as in vivo. Particulars: 20 trained panelists, scale −5 (strong masking) to 5 (strong enhancing); for Astringency: 0 = reference water solution; for Bitterness: 0 = reference water solution with 10 ppm mixture of Limonin, Naringin and Nomilin.
Excerpt: as §1

For a further assay, the system named is panel of 8 experts. In words: Expert panel, bitter and astringent taste in coffee. To be noted: 10 ppm, scale −5 (strong masking) to 5 (strong enhancing), 0 = reference application in coffee. It is filed as in vivo, human. The source says:
A panel consisted in 8 experts evaluating the samples at 10 ppm for taste properties (bitter and astringent) on a scale of −5 to 5 (−5 denoted strong masking effect and 5 denoted strong enhancing effect, 0 being the intensity of a reference application in coffee).

For the compound `COc1cc(-c2cc(=O)c3c(OC)c(OC)c(OC)cc3o2)ccc1O` [Cpd 101, 4′-hydroxy-5,6,7,3′-tetramethoxyflavone], the Sweetness with human sensory panel [1] (10 ppm) is on record as 0.58. In addition, in the assay on human sensory panel [2] (10 ppm), the Astringency is on record as −0.92 and the Bitterness is recorded as −0.92.

In the case of `COc1cc(-c2cc(=O)c3c(OC)c(OC)c(OC)c(OC)c3o2)ccc1O` [Cpd 103, 4′-hydroxy-5,6,7,8,3′-pentamethoxyflavone], in the assay with human sensory panel [1] (10 ppm), the Sweetness was determined as 0.17. Also, in the assay with human sensory panel [2] (10 ppm), the Astringency is given as −0.67 and the Bitterness was −1.17.

Consider `COc1cc2oc(-c3ccc(O)cc3)cc(=O)c2c(OC)c1OC` [Cpd 104, 4′-Hydroxy-5,6,7-trimethoxyflavone], for which the Sweetness in the assay on human sensory panel [1] (10 ppm) came to 0.08. In the assay with human sensory panel [2] (10 ppm), the Astringency is recorded as −0.33 and the Bitterness is given as −1.00.

For the compound `COc1c(OC)c(OC)c2c(=O)cc(-c3ccc(O)cc3)oc2c1OC` [Cpd 106, 4′-hydroxy-5,6,7,8-tetramethoxyflavone], the Sweetness with human sensory panel [1] (5 ppm) is on record as 0.25. In addition, in the assay on human sensory panel [2] (5 ppm), the Astringency is listed as −0.30 and the Bitterness is −2.00.

As to `COc1ccc(-c2cc(=O)c3c(OC)c(OC)c(OC)cc3o2)cc1O` [Cpd 107, 3′-hydroxy-5,6,7,4′-tetramethoxyflavone], the Sweetness in the assay on human sensory panel [1] (1 ppm) stood at 0.50. Also, in the assay with human sensory panel [2] (1 ppm), the Astringency is 0.00 and the Bitterness is listed as 0.08.

Turning to `COc1ccc(-c2cc(=O)c3c(OC)c(OC)c(OC)c(OC)c3o2)cc1O` [Cpd 109, 3′-hydroxy-5,6,7,8,4′-pentamethoxyflavone], the Sweetness with human sensory panel [1] (10 ppm) was 0.03. Moreover, in the assay with human sensory panel [2] (10 ppm), the Astringency is reported as −1.80 and the Bitterness was −3.51. For the same compound, in the assay with panel of 8 experts, the Astringency came to 0.60 and the Bitterness is −1.80.

The values are drawn from patent publication US20240114939A1, “HYDROXY- AND METHOXY-SUBSTITUTED FLAVONES AND THEIR USE” (Firmenich SA, priority 2021, published 2024).
